For one data set, the target named is T1, hα4β2WT nAChRs (Homo sapiens, UniProt P17787+P43681).
T1 construct: Human nAChR α4 and β2 full-length cDNAs in the vector pSP64 (poly A); expressed in transfected cells; host or cells: HEK ts201 cells
Nature of the data set: Calcium accumulation assay, HEK ts201 cells transiently expressing wild-type hα4β2 nAChRs. It counts as cell-based. On the procedure:
(§1) Calcium accumulation assays were performed as described previously with slight modifications. Briefly, HEK ts201 cells, transiently expressing hα4β2WT nAChRs or hα4β2M nAChRs, were plated on 96-well plates at a density of 2.6×10^5 cells per well. Twenty-four hours after plating, the cells were washed and then incubated with fluo-4-AM for 30 minutes at 37°C followed by 30 minutes at 24°C. After incubation, cells were washed and fluorescence was measured at ∼0.7 second intervals using a fluid handling integrated fluorescence plate reader (Flex Station, Molecular Devices, Sunnyvale, CA). […] Functional responses were quantified by first calculating the net fluorescence changes (the difference between control sham-treated and control agonist-treated groups). […] Results were calculated from the number of observations (n) performed in triplicate. Curve fitting was performed by Prism software (GraphPad, San Diego, CA). EC50 values, IC50 values, and Hill coefficients were obtained by averaging values generated from each individual concentration-response curve. EC50 values and IC50 values were expressed as geometric means (95% confidence limits). Experimental values were compared using the t-test (p<0.005), as indicated.
(§2) Human nAChR α4 and β2 full-length cDNAs in the vector pSP64 (poly A) were obtained from Dr. Jon Lindstrom (University of Pennsylvania) and used as the template for mutagenesis (β2) and for transient expression (α4 and β2). A single mutation was made in the β2 subunit using the Quik Change Lightning Multi Site-Directed Mutagenesis Kit (Stratagene) following the manufacturers instructions. Primers were designed using the QuikChange Primer Design Program (Stratagene) and Oligo 4.0 (National Biosciences) and synthesized by Invitrogen. Primers were designed to replace the threonine residue at position 58 in the hβ2 subunit with a lysine found at the similar position in the hβ4 subunit. The following primer was designed to change the threonine (ACC) at position 58 in the β2 subunit to lysine (AAG): β2 mutant 5′-[…]-3′. The underlined nucleotides defined the mutation. Primers were also designed to replace the phenylalanine residue at position 118 in the hβ2 subunit with a leucine found at the similar position in the hβ4 subunit. The following primer was designed to change the phenylalanine (TTC) at position 118 in the β2 subunit to leucine (TTG): 5′-[…]-3′ and 5′- […]-3′. […] The mutant hβ2 cDNAs were subcloned into pcDNA 3.1+Zeo (Invitrogen). The wild type hα4 and hβ2 cDNAs were also subcloned into the pcDNA 3.1+ and pcDNA 3.1+ Zeo vectors respectively. All cDNA clones were completely sequenced using a 3730 DNA Analyzer (Applied Biosystems) at the Ohio State University Plant-Microbe Genomics Facility. DNAs used for transfection were purified using PureLink High Pure Mini or Midi Kits (Invitrogen). HEK ts201 cells (kind gift of Dr. Rene Anand, Ohio State University Department of Pharmacology) were transiently transfected with wild-type hα4 mutant hβ2 or wild-type hα4β2 cDNAs using Lipofectamine 2000 (Invitrogen) in 60 mm dishes. After 8 hours, the cells were replated into 96 well dishes for the intracellular calcium accumulation assays.

For the next data set, the target named is T2, hα4β2-T58K nAChRs (Homo sapiens, UniProt P17787+P43681, T84K).
T2 construct: Human nAChR α4 and β2 full-length cDNAs in the vector pSP64 (poly A); expressed in transfected cells; host or cells: HEK ts201 cells
T2 sequence (P43681 27-627, stated change not applied): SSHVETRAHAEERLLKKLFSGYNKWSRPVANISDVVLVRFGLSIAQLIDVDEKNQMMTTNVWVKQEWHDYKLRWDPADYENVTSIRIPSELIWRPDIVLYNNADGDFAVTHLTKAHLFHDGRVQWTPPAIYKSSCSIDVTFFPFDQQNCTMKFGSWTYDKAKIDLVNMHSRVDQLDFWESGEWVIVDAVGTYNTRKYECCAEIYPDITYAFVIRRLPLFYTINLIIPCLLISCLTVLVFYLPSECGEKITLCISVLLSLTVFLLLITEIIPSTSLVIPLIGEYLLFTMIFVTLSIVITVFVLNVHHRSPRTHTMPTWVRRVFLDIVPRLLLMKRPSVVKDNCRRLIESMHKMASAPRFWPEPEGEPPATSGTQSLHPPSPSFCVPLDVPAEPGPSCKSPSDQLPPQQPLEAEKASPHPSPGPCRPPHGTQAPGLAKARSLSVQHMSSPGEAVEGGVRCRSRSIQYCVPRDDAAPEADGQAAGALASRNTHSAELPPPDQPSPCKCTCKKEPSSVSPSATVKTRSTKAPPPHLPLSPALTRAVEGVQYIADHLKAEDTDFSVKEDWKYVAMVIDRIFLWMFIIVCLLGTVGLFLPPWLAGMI
T2 sequence (P17787 26-502 T84K): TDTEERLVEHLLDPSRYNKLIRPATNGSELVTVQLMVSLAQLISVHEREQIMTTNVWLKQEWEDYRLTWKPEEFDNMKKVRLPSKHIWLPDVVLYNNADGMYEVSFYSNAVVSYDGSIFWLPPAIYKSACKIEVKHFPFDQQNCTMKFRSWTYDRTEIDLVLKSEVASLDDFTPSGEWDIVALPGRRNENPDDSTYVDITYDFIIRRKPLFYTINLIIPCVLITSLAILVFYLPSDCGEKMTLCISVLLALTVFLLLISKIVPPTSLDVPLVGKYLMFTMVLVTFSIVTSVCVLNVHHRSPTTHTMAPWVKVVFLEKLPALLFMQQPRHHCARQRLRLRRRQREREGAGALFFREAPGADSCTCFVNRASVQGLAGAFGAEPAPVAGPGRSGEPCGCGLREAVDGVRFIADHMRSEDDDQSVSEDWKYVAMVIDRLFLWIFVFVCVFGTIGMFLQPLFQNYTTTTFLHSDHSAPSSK
Nature of the data set: Calcium accumulation assay, HEK ts201 cells transiently expressing hα4β2 β2-T58K mutant nAChRs. It counts as cell-based. On the procedure: as §1, §2

The target of the next data set is T3, hα4β2-F118L nAChRs (Homo sapiens, UniProt P17787+P43681, F144L).
T3 construct: Human nAChR α4 and β2 full-length cDNAs in the vector pSP64 (poly A); expressed in transfected cells; host or cells: HEK ts201 cells
T3 sequence (P43681 27-627, stated change not applied): as the sequence (P43681 27-627, stated change not applied) above
T3 sequence (P17787 26-502 F144L): as the sequence (P17787 26-502 T84K) above, with K59T, F119L counted along it
The data set is described as follows: Calcium accumulation assay, HEK ts201 cells transiently expressing hα4β2 β2-F118L mutant nAChRs. Type of data set: cell-based. On the procedure:
as §1, §2

Data set [1] is described as follows: Solubility limit in functional assay. The note with it: read-out: highest soluble test concentration. It counts as physicochemical.
The next data set concerns human α3β4 nAChRs. The note with it: tested at concentrations up to 100 µM; cited from earlier work.
In a further data set the test system is hα4β2 nAChRs. The note with it: introduction, low µM range; cited from earlier work.
The target of data set [2] is recombinant hα4β2 receptors. Also noted: method as in PMID 8996215, PMID 11044726, PMID 9454827. The note with it: read-out: expt. potency, EC50, cited from earlier work.
Data set [3] has as its target recombinant hα3β4 receptors. More on the design: method as in PMID 8996215, PMID 11044726, PMID 9454827. The note with it: read-out: expt. potency, EC50, cited from earlier work.

The structures appear in SMILES notation. Read-outs that look alike come from different tables or passages of the source.

T1 sequence (P43681 29-627 limits assumed): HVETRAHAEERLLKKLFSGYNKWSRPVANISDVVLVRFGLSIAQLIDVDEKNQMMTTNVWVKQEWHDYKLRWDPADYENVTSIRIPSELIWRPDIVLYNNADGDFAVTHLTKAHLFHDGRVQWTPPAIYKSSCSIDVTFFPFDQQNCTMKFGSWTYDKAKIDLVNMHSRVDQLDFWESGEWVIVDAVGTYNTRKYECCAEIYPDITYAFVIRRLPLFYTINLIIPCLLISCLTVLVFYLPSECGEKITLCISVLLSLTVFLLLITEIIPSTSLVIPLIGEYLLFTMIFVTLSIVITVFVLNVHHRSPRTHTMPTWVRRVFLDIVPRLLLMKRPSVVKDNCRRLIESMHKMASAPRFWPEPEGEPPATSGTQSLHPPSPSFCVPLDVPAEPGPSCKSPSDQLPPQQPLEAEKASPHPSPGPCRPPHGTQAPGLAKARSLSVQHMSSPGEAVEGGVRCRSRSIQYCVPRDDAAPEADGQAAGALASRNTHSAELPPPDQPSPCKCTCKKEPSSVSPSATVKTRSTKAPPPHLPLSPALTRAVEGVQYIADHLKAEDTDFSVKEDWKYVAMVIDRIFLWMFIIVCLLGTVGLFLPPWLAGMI
T1 sequence (P17787 26-502): as the sequence (P17787 26-502 T84K) above, with K59T counted along it

The IC50 is the concentration that gives 50% inhibition. `O=C(OCC1CCCN(CCCc2ccccc2)C1)c1ccccc1-c1ccccc1` (stereo not shown) [KAB-18]: the “n H, Hill coefficient” value is reported as −1.2 at hα4β2WT nAChRs (hα4β2-WT nAChRs) and −1.0 at hα4β2-T58K nAChRs (hα4β2-T58K nAChRs). Also, the IC50 at hα4β2WT nAChRs (read-out: IC50) was 8.5 µM; at hα4β2-T58K nAChRs (read-out: IC50), 71.8 µM; on hα4β2-F118L nAChRs, more than 100 µM. Also, the “decrease in potency, β2T58K mutant vs wild-type” value on hα4β2-T58K nAChRs (ratio of IC50 71.8 µM (T58K) to 8.5 µM (WT)) is on record as “eight-fold decrease”. Besides, the “inhibitory activity on F118L mutant” value on hα4β2-F118L nAChRs (at concentrations up to 100 µM) is “loss of inhibitory activity”. In addition, the solubility in data set [1] is not above 100 µM. For the same molecule, the “functional activity on human α3β4 nAChRs” value in the data set with human α3β4 nAChRs is reported as “no functional activity”. Further, the “potency (inhibition of hα4β2 nAChRs)” value in the data set with hα4β2 nAChRs is 10 µM.

A word on the EC50: it is the midpoint of the concentration-response curve. As for `CC(=O)OCC[N+](C)(C)C` [acetylcholine], the figures for the EC50 in data set [2] (hα4β2) and in data set [3] (hα3β4) were 100 µM and 203 µM, respectively.

On to `COc1cc2c3cc1Oc1cc(ccc1O)C[C@@H]1c4c(cc(OC)c(O)c4Oc4ccc(cc4)C[C@@H]3N(C)CC2)CC[N+]1(C)C` [d-tubocurarine], for which the IC50 at hα4β2WT nAChRs amounted to 6.3 µM; on hα4β2-T58K nAChRs, 6.2 µM; on hα4β2-F118L nAChRs, 6.5 µM. For the same molecule, the “n H, Hill coefficient” value is recorded as −1.0 on hα4β2WT nAChRs, −0.6 at hα4β2-T58K nAChRs and −0.9 at hα4β2-F118L nAChRs.

Regarding `Clc1ccc(C2CC3CCC2N3)cn1` (stereo not shown) [epibatidine], the entries for the “n H, Hill coefficient” value at hα4β2WT nAChRs (hα4β2-WT nAChRs), on hα4β2-T58K nAChRs (hα4β2-T58K nAChRs) and on hα4β2-F118L nAChRs (hα4β2-F118L nAChRs) were 0.9, 0.7 and 0.8, respectively. The EC50 was 0.043 µM in data set [2] (hα4β2) and 0.151 µM in data set [3] (hα3β4).

On to `CNC1(C)C2CCC(C2)C1(C)C` (stereo not shown) [mecamylamine], for which the “n H, Hill coefficient” value on hα4β2WT nAChRs (hα4β2-WT nAChRs) is −1.4; at hα4β2-T58K nAChRs (hα4β2-T58K nAChRs), −0.6; at hα4β2-F118L nAChRs (hα4β2-F118L nAChRs), −1.1. The IC50 on hα4β2WT nAChRs (read-out: IC50) turned out to be 0.2 µM; at hα4β2-T58K nAChRs (read-out: IC50), 0.2 µM; at hα4β2-F118L nAChRs (read-out: IC50), 0.4 µM.

Consider `CN1CCC[C@H]1c1cccnc1` [nicotine], for which the EC50 in data set [2] is 3.5 µM; in data set [3], 40.3 µM.

Source of the values: publication PMC3174232, “Identification of a Negative Allosteric Site on Human α4β2 and α3β4 Neuronal Nicotinic Acetylcholine Receptors” (PLoS ONE, 2011).
